system: not listed separately; test: Particle size and PDI of lipid nanoparticles by dynamic light scattering; type: physicochemical; conditions: LNP 50:38.5:10:1.5, N/P 6, luciferase mRNA
Protocol: (§1) Lipid nanoparticles were prepared by (1) dissolving and mixing ionizable lipid compounds, cholesterol, phospholipids and polyethylene glycolated lipids in ethanol at (molar percentages) 50%, 38.5%, 10% and 1.5%, respectively; (2) dissolving the mRNA active ingredient in 25 mM sodium acetate solution (pH=4.5); (3) using an automated high-throughput microfluidic system to mix the organic phase containing the lipid mixture and the aqueous phase containing the mRNA component in the flow ratio range of 1:1 to 1:4 at a mixing speed of 10 mL/min to 18 mL/min; (4) the prepared lipid nanoparticles (N/P ratio of 6) were diluted with phosphate buffer solution and the nanoparticle solutions were ultrafiltered to the original preparation volume using ultrafiltration tubes (purchased from Millipore) with a cut-off molecular weight of 30 kDa; and (5) the obtained nanoparticles were filtered through a sterile 0.2 μm filter membrane and then stored in a sealed glass vial at low temperature.
The particle size and particle size dispersity index (PDI) of the prepared lipid nanoparticles were measured using a Zetasizer Pro (purchased from Malvern Instruments Ltd) and a DynaPro NanoStar (purchased from Wyatt) dynamic light scattering instrument. The degree of RNA encapsulation by lipid nanoparticles was characterized by the Encapsulation Efficiency %, which reflects the degree of binding of lipid nanoparticles to RNA fragments. This parameter was measured by the method of Quant-it™ RiboGreen RNA Assay (purchased from Invitrogen). Lipid nanoparticle samples were diluted in TE buffer (10 mM Tris-HCl, 1 mM EDTA, pH=7.5). A portion of the sample solution was removed, to which 0.5% Triton (Triton X-100) was added, and then allowed to stand at 37° C. for 30 minutes. Immediately after the addition of RIBOGREEN® reaction solution, the fluorescence values were read on a Varioskan LUX multifunctional microplate reader (purchased from Thermofisher) at 485 nm for absorption and 528 nm for emission to give the encapsulation efficiency values.

SMILES | Particle size dispersity (PDI)
CCCCCCCC(CCCCCCC)COC(=O)CCC(C)(C)CCCC(CCCC(C)(C)CCC(=O)OCC(CCCCCCC)CCCCCCC)OC(=O)CCCN(C)C [Compound 129] | 0.06
CCCCCCCCCSC(=O)C(C)(C)CCCCCC(CCCCCC(C)(C)C(=O)SCCCCCCCCC)OC(=O)C1CCN(C)CC1 [Compound 106] | 0.05
CCCCCCCCCOC(=O)CCCCCCC(CCCCCCC(=O)OCCCCCCCCC)OC(=O)CCCN(C)C [D1, reference compound] | 0.18
CCCCCCCCCOC(=O)C(C)(C)CCCCCC(CCCCCC(C)(C)C(=O)SCCCCCCCCC)OC(=O)CCCN(C)C (centres unmarked) [Compound 41] | 0.05
CCCCCCCCOC(=O)C(C)(C)CCCCCC(CCCCCC(C)(C)C(=O)OCCCCCCCC)OC(=O)C1CCN(C(C)C)CC1 [Compound 101] | 0.06
CCCCCCCCCSC(=O)C(C)(C)CCCCCC(CCCCCC(C)(C)C(=O)SCCCCCCCCC)OC(=O)CC1CCN(CCO)CC1 [Compound 110] | 0.01
CCCCCCC#CCOC(=O)C(C)(C)CCCCCC(CCCCCC(C)(C)C(=O)OCCCCCCCCC)OC(=O)CCCN(C)C (centres unmarked) [Compound 42] | 0.07
CCCCCCCCCCSC(=O)C(C)(C)CCCCCC(CCCCCC(C)(C)C(=O)SCCCCCCCCCC)OC(=O)C1CCN(C)CC1 [Compound 104] | 0.06
CCCCCCCCCOC(=O)C(C)(C)CCCCC(CCCCC(C)(C)C(=O)OCC(CCCCC)CCCCCCC)OC(=O)CCCN(C)C (centres unmarked) [Compound 122] | 0.07
CC(C)CCCCCCCOC(=O)CCC(C)(C)CCCC(CCCC(C)(C)CCC(=O)OCCCCCCCC(C)C)OC(=O)CCCN(C)C [Compound 127] | 0.05
CCCCCCCCCOC(=O)C(C)(C)CCCCCC(CCCCCC(C)(C)C(=O)OCC(CCCCC)CCCCCCC)OC(=O)CC1CCN(C)CC1 (centres unmarked) [Compound 111] | 0.06
CCCCCCCCCCSC(=O)C(C)(C)CCCCCC(CCCCCC(C)(C)C(=O)OCCCCCCCCC)OC(=O)CCCN(C)C (centres unmarked) [Compound 40] | 0.05
CCCCCCCCCSC(=O)C(C)(C)CCCCCC(CCCCCC(C)(C)C(=O)OCC(CCCCC)CCCCCCC)OC(=O)CC1CCN(C)CC1 (centres unmarked) [Compound 112] | 0.08
CCCCCCCCCCOC(=O)C(C)(C)CCCCCC(CCCCCC(C)(C)C(=O)OCCCCCCCCCC)OC(=O)C1CCN(C)CC1 [Compound 99] | 0.05
CCCCCCCCCOC(=O)C(C)(C)CCCCCC(CCCCCC(C)(C)C(=O)OCCCCCCCCC)OC(=O)C1CCN(C)CC1 [Compound 102] | 0.03
CCCCC/C=C\C/C=C\CCCCCCCCC(CCCCCCCC/C=C\C/C=C\CCCCC)OC(=O)CCCN(C)C [DLin-MC3-DMA, reference compound] | 0.04
CCCCCCCCCCSC(=O)C(C)(C)CCCCCC(CCCCCC(C)(C)C(=O)SCCCCCCCCCC)OC(=O)C1CCN(C(C)C)CC1 [Compound 105] | 0.05
CCCCCCCCCOC(=O)CC(C)(C)CCCCC(CCCCC(C)(C)CC(=O)OCCCCCCCCC)OC(=O)CCCN(C)C [Compound 97] | 0.25
CCCCCCCCCOC(=O)C(C)(C)CCCCCC(CCCCCC(C)(C)C(=O)OCCCCCCCCC)OC(=O)C1CCN(C(C)C)CC1 [Compound 103] | 0.04
CCCCCCCCCOC(=O)C(C)(C)CCCCCCC(CCCCCCC(C)(C)C(=O)OCC(CCCCC)CCCCCCC)OC(=O)CCCCN(C)C (centres unmarked) [Compound 126] | 0.06
CCCCCCCCCOC(=O)CCCCCCC(CCCCCCC(=O)OCC(CCCCC)CCCCCCC)OC(=O)CCCN(C)C (centres unmarked) [D2, reference compound] | 0.20
CCCCCCCCCOC(=O)C(C)(C)CCCCCC(CCCCCC(C)(C)C(=O)OCCCCCCCCC)OC(=O)CC1CCN(CCO)CC1 [Compound 113] | 0.03
CCCCCCCCCOC(=O)C(C)(C)CCCCCC(CCCCCC(C)(C)C(=O)OCC(CCCCC)CCCCCCC)OC(=O)CC1CCN(CCO)CC1 (centres unmarked) [Compound 114] | 0.04
CCCCCCC/C=C\COC(=O)CC(C)(C)CCCCC(CCCCC(C)(C)CC(=O)OCC(CCCCC)CCCCCCC)OC(=O)CCCN(C)C (centres unmarked) [Compound 98] | 0.13
CCCCCCCCCOC(=O)C(C)(C)CCCCCC(CCCCCC(C)(C)C(=O)OCC(CCCCC)CCCCCCC)OC(=O)CCCN(C)C (centres unmarked) [Compound 46] | 0.09

Next, values leading:

Particle size dispersity (PDI) | SMILES
0.05 | CCCCCCCCCSC(=O)C(C)(C)CCCCCC(CCCCCC(C)(C)C(=O)OCC#CCCC(CCCC)CCCC)OC(=O)CCCN(C)C (centres unmarked) [Compound 119]
0.05 | CCCCCCCCCSC(=O)C(C)(C)CCCCCC(CCCCCC(C)(C)C(=O)SCCCCCCCCC)OC(=O)CC1CCN(C)CC1 [Compound 108]
0.05 | CCCCCCCCCCOC(=O)C(C)(C)CCCCCC(CCCCCC(C)(C)C(=O)OCCCCCCCCCC)OC(=O)CCN1CCCC1 [Compound 92]
0.07 | CCCCCCCCCOC(=O)C(C)(C)CCCCCC(CCCCCC(C)(C)C(=O)OCC#CC(CCCCCC)CCCCCC)OC(=O)CCCN(C)C (centres unmarked) [Compound 118]
0.04 | CCCCCCCC#CCOC(=O)C(C)(C)CCCCCC(CCCCCC(C)(C)C(=O)OCCCC(CCCCC)CCCCC)OC(=O)CCCN(C)C (centres unmarked) [Compound 115]
0.05 | CCCCCCC(CCCCCC)CCOC(=O)CCC(C)(C)CCCC(CCCC(C)(C)CCC(=O)OCCC(CCCCCC)CCCCCC)OC(=O)CCCN(C)C [Compound 128]
0.05 | CCCCCCCCCSC(=O)C(C)(C)CCCCCC(CCCCCC(C)(C)C(=O)SCCCCCCCCC)OC(=O)C1CCN(C(C)C)CC1 [Compound 107]
0.05 | CCCCCCCC#CCOC(=O)C(C)(C)CCCCCC(CCCCCC(C)(C)C(=O)OCC(CCCCC)CCCCCCC)OC(=O)CCCN(C)C (centres unmarked) [Compound 116]
0.07 | CCCCCCCCOC(=O)C(C)(C)CCCCCC(CCCCCC(C)(C)C(=O)OCCCCCCCC)OC(=O)C1CCN(C)CC1 [Compound 100]
0.05 | CCCCCCCCCCOC(=O)C(C)(C)CCCCCC(CCCCCC(C)(C)C(=O)OCCCCCCCCCC)OC(=O)CCN1CCOCC1 [Compound 90]
0.06 | CCCCC(CC#CCOC(=O)C(C)(C)CCCCCC(CCCCCC(C)(C)C(=O)OCC#CCC(CCCC)CCCC)OC(=O)CCCN(C)C)CCCC [Compound 117]
0.05 | CCCCCCCCCCOC(=O)C(C)(C)CCCCC(CCCCC(C)(C)C(=O)OCC(CCCCC)CCCCCCC)OC(=O)CCCN(C)C (centres unmarked) [Compound 123]
0.05 | CCCCCCCCCCOC(=O)C(C)(C)CCCCCC(CCCCCC(C)(C)C(=O)OCCCCCCCCCC)OC(=O)CN1CCOCC1 [Compound 91]
0.06 | CCCCCCCCCSC(=O)C(C)(C)CCCCCC(CCCCCC(C)(C)C(=O)SCCCCCCCCC)OC(=O)CC1CCN(CC)CC1 [Compound 109]
0.07 | CCCCCCCCCOC(=O)C(C)(C)CCCCCCC(CCCCCCC(C)(C)C(=O)OCC(CCCCC)CCCCCCC)OC(=O)CCCN(C)C (centres unmarked) [Compound 125]

same assay, conditions: LNP ionizable lipid:cholesterol:DSPC:DMG-PEG2000 50:38.5:10:1.5, N/P 6, luciferase mRNA

Particle size (nm) | SMILES
80.98 nm | CCCCCCCCCSC(=O)C(C)(C)CCCCCC(CCCCCC(C)(C)C(=O)OCC#CCCC(CCCC)CCCC)OC(=O)CCCN(C)C (centres unmarked) [Compound 119]

system: not listed separately; test: Encapsulation efficiency by Quant-it RiboGreen RNA Assay; type: physicochemical; conditions: LNP 50:38.5:10:1.5, N/P 6, luciferase mRNA
Protocol: as §1
The particle size and particle size dispersity index (PDI) of the prepared lipid nanoparticles were measured using a Zetasizer Pro (purchased from Malvern Instruments Ltd) and a DynaPro NanoStar (purchased from Wyatt) dynamic light scattering instrument. […] This parameter was measured by the method of Quant-it™ RiboGreen RNA Assay (purchased from Invitrogen). […]

Encapsulation efficiency (%) | SMILES
86.92% | CCCCCCCCCSC(=O)C(C)(C)CCCCCC(CCCCCC(C)(C)C(=O)OCC#CCCC(CCCC)CCCC)OC(=O)CCCN(C)C (centres unmarked) [Compound 119]
95.62% | CCCCC/C=C\C/C=C\CCCCCCCCC(CCCCCCCC/C=C\C/C=C\CCCCC)OC(=O)CCCN(C)C [DLin-MC3-DMA, reference compound]

system: C57BL/6 mice; test: Animal experiment: in vivo bioluminescence after i.v. lipid nanoparticles encapsulated with luciferase mRNA; conditions: compound 20 vs. D1, compound 46 vs. D2
Protocol: The delivery effect and safety of nanoparticles encapsulated with luciferase mRNA (Trilink, L-7202) in mice were evaluated. The test mice were SPF-grade C57BL/6 mice, female, 6-8 weeks old, weighing 18-22 g, and were purchased from SPF (Beijing) Biotechnology Co., Ltd. All animals were acclimatized for more than 7 days prior to the experiment, and had free access to food and water during the experiment. The conditions include alternating light and dark for 12/12 h, the indoor temperature of 20-26° C. and the humidity of 40-70%. The mice were randomly grouped. […] The anesthetized mice were placed in IVIS for fluorescence imaging, and data acquisition and analysis were performed on the concentrated distribution area of fluorescence.
The in vivo delivery efficiency of lipid nanoparticle carriers was expressed as the mean values of fluorescence intensity and total photon count in different animals within the same subject group, as shown in Table 5. Higher values of fluorescence intensity and total photon count indicate higher in vivo delivery efficiency of this mRNA fragment by lipid nanoparticles. […]

SMILES | in vivo delivery efficiency compared with the molecule without tetramethyl
CCCCCCCCCOC(=O)C(C)(C)CCCCCC(CCCCCC(C)(C)C(=O)OCC(CCCCC)CCCCCCC)OC(=O)CCCN(C)C (centres unmarked) [Compound 46] | significantly increased in vivo delivery efficiency

— patent US12642768B2, “Lipid nanoparticles” (Beijing Jitai Life Sciences Ltd, priority 2022, dated 2026)
